Data set [1] relates to Sarcoma-180. Briefly: antitumor activity against subcutaneous Sarcoma-180 in mice, tail vein administration (Pharmacological Test II). The following applies: Mus musculus, Sarcoma-180, iv, 240 h, once a day for 7 consecutive days, tumor weight on 10th day, read-out: ED50 (50% tumor inhibition dose, T/C = 0.5). The class given is in vivo, ICR mice. The procedure:
Sarcoma-180 subcultured in ascites of ICR mice was diluted with a physiological saline and subcutaneously transplanted into the backs of ICR mice in an amount of 2×10^7 cells each. Twenty-four hours after the transplantation, a test compound dissolved in sterilized physiological saline was administered to the tail vein of each of the mice once a day for 7 consecutive days. The solid tumor was isolated from under the dorsal skin of mice on the 10th day after the transplantation to measure the weight of the tumor. There was determined the ratio (T/C) of the weight of tumor (T) of the test compound group to the weight of tumor (C) of the control group. The 50% tumor inhibition dose (ED50 value) in which T/C is 0.5 was determined from the dose response curve of dosage and the ratio (T/C).

For data set [2], the system named is Sarcoma-180. Briefly: antitumor activity against subcutaneous Sarcoma-180 in mice, oral administration (Pharmacological Test I). The conditions noted are these: for ED50: Mus musculus, Sarcoma-180, 240 h, once a day for 7 consecutive days, tumor weight on 10th day, read-out: ED50 (effective dose for achieving 50% cancer inhibition). The class given is in vivo, male mice of ICR/JCL strain. The procedure:
(§1) Tissues of Sarcoma-180 were subcutaneously transplanted into the back of male mice of ICR/JCL strain (weighing 27 to 30 g) in an amount of 5×10^6 cells each. The test compound was administered in the form of a weakly acidic aqueous solution. The solution was orally given to each mouse (7 mice in each group) in a dose of 1.0 ml/100 g body weight once a day for 7 consecutive days starting 24 hours after the transplantation, and a weakly acidic aqueous solution containing no test compound was orally administered to the control group in an amount of 1.0 ml/100 g body weight once a day for 7 consecutive days starting 24 hours after the transplantation.
(§2) The tumor was removed from the body on the 10the day after the transplantation and weighed to calculate the average weight of the tumors in the group to which the test compound-containing solution was given and the corresponding weight in the control group. The effective dose (ED50) for achieving 50% cancer inhibition was determined from the dose-response curve. The dose of 50% inhibition of body weight gain (IB50) was determined from the dose-body weight change curve. The therapeutic index (T.I. =IB50/ ED50) was determined with the results shown below in Table 6.

The nature of data set [3]: inhibition of body weight gain in Sarcoma-180 bearing mice, oral administration (Pharmacological Test I). The class given is in vivo, male mice of ICR/JCL strain. The following applies: once a day for 7 consecutive days. The procedure:
as §1, §2

The mark [4] stands for this setting: compared with O^3' -p-chlorobenzyl-2'-deoxy-5-fluorouridine.

These results are taken from patent US4946951A, “2'-deoxy-5-fluorouridine derivatives” (Taiho Pharmaceutical Co., Ltd., priority 1987, dated 1990).

`CC(C)C[C@H](N)C(=O)OC[C@H]1O[C@@H](n2cc(F)c(=O)[nH]c2=O)C[C@@H]1OCc1ccc(Cl)cc1` [Compound 14]: in the data set with Sarcoma-180 [1], the ED50 is 1.5 mg/kg.

Turning to `CC(C)[C@H](N)C(=O)OC[C@H]1O[C@@H](n2cc(F)c(=O)[nH]c2=O)C[C@@H]1OCc1ccc(Cl)cc1` [Compound 13], in the data set with Sarcoma-180 [1], the ED50 turned out to be 1.5 mg/kg.

As for `O=c1[nH]c(=O)n([C@H]2C[C@H](OCc3ccc(Cl)cc3)[C@@H](CO)O2)cc1F` [O^3' -p-chlorobenzyl-2'-deoxy-5-fluorouridine, reference compound], in the data set on Sarcoma-180 [2], the “T.I. (therapeutic index = IB50/ED50)” value amounted to 1.64 and the ED50 came to 0.94 mg/kg. For the same compound, the “IB50 (dose of 50% inhibition of body weight gain)” value in data set [3] stood at 1.54 mg/kg/day.

For the compound `NCC(=O)OC[C@H]1O[C@@H](n2cc(F)c(=O)[nH]c2=O)C[C@@H]1OCc1ccc(Cl)cc1` [Compound 12], in the data set on Sarcoma-180 [2], the “T.I. (therapeutic index = IB50/ED50)” value is listed as 4.80 and the ED50 came to 0.75 mg/kg. Moreover, in the data set on Sarcoma-180 [2] (setting [4]), the “anti-cancer effect in words” value was “superior in anti-cancer effect”, the efficacy in words result was “higher in efficacy” and the “therapeutic index in words” value is listed as “greater in therapeutic index”. Besides, in data set [3], the “IB50 (dose of 50% inhibition of body weight gain)” value came to 3.60 mg/kg/day.

On to `NCC(=O)OC[C@H]1O[C@@H](n2cc(F)c(=O)[nH]c2=O)C[C@@H]1OCc1ccc(Cl)cc1Cl` [Compound 19], for which the ED50 with Sarcoma-180 [1] was 0.8 mg/kg.

For the compound `Cl.NCC(=O)OC[C@H]1O[C@@H](n2cc(F)c(=O)[nH]c2=O)C[C@@H]1OCc1ccc(Cl)cc1` [Example 8 (E), 3'-O-(4-chlorobenzyl)-2'-deoxy-5-fluoro-5'-O-glycyluridine hydrochloride], in the data set with Sarcoma-180 [1], the ED50 was found to be 1 mg/kg.

As for `C[C@H](N)C(=O)OC[C@H]1O[C@@H](n2cc(F)c(=O)[nH]c2=O)C[C@@H]1OCc1ccc(Cl)cc1` [Compound 22], the ED50 with Sarcoma-180 [1] stood at 1 mg/kg.

As to `NCC(=O)OC[C@H]1O[C@@H](n2cc(F)c(=O)[nH]c2=O)C[C@@H]1OCc1ccc(Cl)cc1` [Compound 28], the ED50 with Sarcoma-180 [1] was 1 mg/kg.
